Data published in the supplement of paper PMC10307832.

Assays:
Assay in all cases: relative viability (nuclei count vs DMSO), 5 days (fraction); higher = more cells survive
17-AAG + Phenformin = compound: C=CCNC1=C2C[C@@H](C)C[C@H](OC)[C@H](O)[C@@H](C)/C=C(\C)[C@H](OC(N)=O)[C@@H](OC)/C=C\C=C(/C)C(=O)NC(=CC1=O)C2=O [17-AAG] + N=C(N)NC(=N)NCCc1ccccc1 [Phenformin] (partner 250 µM)
Summary of the method: (§1)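 Cells from lung cancer lines were seeded into 1536-well plates and, one day later, dosed by pin tool. Treatments were either a single drug or a fixed dose of an anchor drug with five library-drug doses (not always all listed) in √10 steps. After 5 days, nuclei were stained in a one-step fixation (final 0.05% Triton X-100, 1% formaldehyde, 1 ug/ml Hoechst) and counted on 4× images, and relative viability is the treated-to-vehicle nuclei ratio, as the median of duplicate plates.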

17-AAG + OSI-027 = compound: C=CCNC1=C2C[C@@H](C)C[C@H](OC)[C@H](O)[C@@H](C)/C=C(\C)[C@H](OC(N)=O)[C@@H](OC)/C=C\C=C(/C)C(=O)NC(=CC1=O)C2=O [17-AAG] + COc1cccc2cc(-c3nc([C@H]4CC[C@H](C(=O)O)CC4)n4ncnc(N)c34)[nH]c12 [OSI-027] (partner 0.5 µM)
Summary of the method: as §1

17-AAG + Crizotinib = compound: C=CCNC1=C2C[C@@H](C)C[C@H](OC)[C@H](O)[C@@H](C)/C=C(\C)[C@H](OC(N)=O)[C@@H](OC)/C=C\C=C(/C)C(=O)NC(=CC1=O)C2=O [17-AAG] + C[C@@H](Oc1cc(-c2cnn(C3CCNCC3)c2)cnc1N)c1c(Cl)ccc(F)c1Cl [Crizotinib] (partner 1 µM)
Summary of the method: as §1

17-AAG + Trametinib = compound: C=CCNC1=C2C[C@@H](C)C[C@H](OC)[C@H](O)[C@@H](C)/C=C(\C)[C@H](OC(N)=O)[C@@H](OC)/C=C\C=C(/C)C(=O)NC(=CC1=O)C2=O [17-AAG] + CC(=O)Nc1cccc(-n2c(=O)n(C3CC3)c(=O)c3c(Nc4ccc(I)cc4F)n(C)c(=O)c(C)c32)c1 [Trametinib] (partner 0.02 µM)
Summary of the method: as §1

Cell Line	relative viability (17-AAG + Phenformin; first compound 0.00128 µM)	relative viability (17-AAG + Phenformin; first compound 0.004048 µM)	relative viability (17-AAG + Phenformin; first compound 0.0128 µM)	relative viability (17-AAG + Phenformin; first compound 0.04048 µM)	relative viability (17-AAG + Phenformin; first compound 0.128 µM)	relative viability (17-AAG + OSI-027; first compound 0.00128 µM)	relative viability (17-AAG + OSI-027; first compound 0.004048 µM)	relative viability (17-AAG + OSI-027; first compound 0.0128 µM)	relative viability (17-AAG + OSI-027; first compound 0.04048 µM)	relative viability (17-AAG + OSI-027; first compound 0.128 µM)	relative viability (17-AAG + Crizotinib; first compound 0.00128 µM)	relative viability (17-AAG + Crizotinib; first compound 0.0128 µM)	relative viability (17-AAG + Crizotinib; first compound 0.04048 µM)	relative viability (17-AAG + Crizotinib; first compound 0.128 µM)	relative viability (17-AAG + Trametinib; first compound 0.00128 µM)	relative viability (17-AAG + Trametinib; first compound 0.004048 µM)	relative viability (17-AAG + Trametinib; first compound 0.0128 µM)	relative viability (17-AAG + Trametinib; first compound 0.04048 µM)	relative viability (17-AAG + Trametinib; first compound 0.128 µM)	relative viability (17-AAG + Crizotinib; first compound 0.004048 µM)
HCC-78	0.644	0.818	0.676	0.553	0.351	0.375	0.416	0.405	0.39	0.384	0.378	0.351	0.273	0.235	0.744	0.593	0.71	0.663	0.359	
HCC-366	0.653	0.591	0.159	0.0455	0.0292	0.942	0.964	0.117	0.0472	0.037	0.463	0.0283	0.018	0.0156	0.399	0.389	0.0548	0.0372	0.0284	0.506
HCC-827	0.368	0.447	0.363		0.251	0.826	0.785	0.728		0.394	0.941	0.943		0.754	0.508	0.508	0.502		0.311	0.91
HOP-62	0.711	0.541	0.404	0.305	0.118	0.879	0.806	0.6	0.44	0.112	0.938	1.02	0.935	0.248	0.396	0.35	0.355	0.191	0.167	1.04
IA-LM											0.807	0.758	0.291	0.0644						0.663
